Laboratory results from patent US8044204B2, “8-methoxy-9H-isothiazolo[5,4-b]quinoline-3,4-diones and related compounds as anti-infective agents” (Achillion Pharmaceuticals, Inc., priority 2005, dated 2011).
≈ marks a conversion by molar mass, not a printed value. Structures can show the parent of a compound that is named as a salt. Where two headings read alike, the source gives them in different places.

Assays:
Assay type in all cases: cell-based
[1] = test system: E. coli ATCC 25922; test: Minimum Inhibitory Concentration (MIC) assay, E. coli; details: Escherichia coli, ATCC25922; broth microdilution; read-out: MIC against E. coli
In short: (§1)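 NCCLS broth microdilution in Mueller-Hinton II broth, two-fold dilutions giving final 0.125–128 μg/mL, inoculum ~1×10^6 cfu/mL. Incubated in ambient air at 37 °C for 18–24 h. MIC read as lowest concentration with no visible growth.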

[2] = test system: S. aureus ATCC 29213; test: Minimum Inhibitory Concentration (MIC) assay, S. aureus; details: Staphylococcus aureus, ATCC29213; broth microdilution; read-out: MIC against S. Aureus
In short: as §1

[3] = Cell viability staining with Alamar Blue (cytotoxicity CC50), Hep2; details: human
Procedure: To determine whether the microcidal effect observed against S. aureus and E. coli is specific to bacterial cells, compounds are screened for cell viability effects on several human cell types.
Optimal cell density is first determined by plating cells in a 96-well plate standard sterile tissue culture plates in 100 μl media, 10% FBS at six cell densities from 500 cells/well to 15,000 cells/well. A cell free well containing only media is used as a control. Cells are incubated at 37° C. in a 5% CO2 incubator for 24 hours. 10% culture volume (10 ul) of Alamar Blue (Biosource, DAL1100, 100 mL) is then added. Cells are incubated at 37° C. in a 5% CO2 incubator and read in a Victor V plate reader, 544 nm excitation, 590 nm emission, at 3, 4, and 24 hours after the addition of Alamar Blue. The cell number vs. change in fluorescence is plotted to determine linearity of signal vs. cell number. The optimal density varies between 500-15,000 cells/well depending on the specific cell type. The optimal density is selected based on the highest number of cells that is still in the linear response range.
Determination of Compound Cytotoxicity
Cells are plated at optimal cell density in a standard sterile tissue culture 96 well plate, and incubated at 37° C. O/N in a 5% CO2 incubator. 12 to 48 hours post-plating media is removed. The cells are washed 1 or 2 times with 1×PBS and replaced with fresh media containing the test compound in 1% DMSO. 24 to 72 hours after addition of compound, the media is removed, and the cells washed 1 to 2 times with 1×PBS. Fresh media containing 1/10 volume of Alamar Blue is then added. Plates are incubated 4 hours at 37° C. in a 5% CO2 incubator and read in a Victor V plate reader, 544 nm excitation, 590 nm emission.
Compounds are diluted to 20 micromolar in 1% DMSO and media and screened in duplicate to obtain single concentration cytotoxicity data. Eight concentration points from 0.78 micromolar to 100 micromolar, run in duplicate, are used to determine cyclotoxicity CC50 values. Cells with 1% DMSO and media are used as a negative control, compounds having a known CC50 against a particular cell type are used as positive controls.
The change in fluorescence vs. concentration of test compound is plotted to determine the cytotoxicity of the compound.
Sample media conditions, optimal plating densities, and positive control compounds for two cell types screened are presented in Table III.

[4] = test system: MRSA strain ATCC 700699; test: Minimum Inhibitory Concentration (MIC) assay, Methicillin Resistant S. Aureus; details: Staphylococcus aureus
Text: It has been unexpectedly discovered that substitution of compounds of Formula I and Formula II with a methoxy substituent at the R8 position increases the anti-microbial activity of the compound against Methicillin resistant Staphylococcus Aureus bacteria while at the same time decreasing the cellular toxicity of the compound. The simultaneous increase in compound activity and decrease in compound toxicity provides a greater therapeutic range for compounds of Formula I and Formula II in which R8 is methoxy; i.e. the range of doses of such compounds that will produce beneficial effects without harmful side effects is increased. […] Therapeutic range is determined using a standard assay of cytotoxicity such as the Alamar blue assay provided in Example 10.
The antimicrobial activity of the compounds of the invention may be evaluated by a number of methods, including the following visual minimum inhibitory concentration (MIC) assay. This assay determines the minimum concentration of compound required to inhibit growth of a bacterial strain.
Minimum Inhibitory Concentration (MIC) Assay
Whole-cell antibacterial activity is determined by broth microdilution using conditions recommended by the NCCLS (see National Committee for Clinical Laboratory Standards. 2001. Performance standards for antimicrobial susceptibility testing: 11th informational supplement. Vol. 21, no. 1, M100-S11. National Committee for Clinical Laboratory Standards, Wayne, Pa.). Test compounds are dissolved in DMSO and diluted 1:50 in Mueller-Hinton II broth (Becton-Dickinson) to produce a 256 μg/ml stock solution. In a 96-well microtiter plate, the compound solution is serially two-fold diluted in Mueller-Hinton II broth. After the compounds are diluted, a 50 μl aliquot of the test organism (˜1×10^6 cfu/mL) is added to each well of the microtiter plate. The final test concentrations ranges from 0.125-128 μg/mL. Inoculated plates are incubated in ambient air at 37° C. for 18 to 24 hours. The organisms selected for testing included laboratory strains S. aureus ATCC 29213 and E. coli ATCC 25922 (strains purchased from American Type Culture Collection, Manassas, Va.), S. aureus FQR700699, and Paeruginosa 27853. The minimum inhibitory concentration (MIC) is determined as the lowest concentration of compound that inhibited visible growth of the test organism.

[5] = in vitro; details: Chinese hamster
[6] = Hep2 cells (ATCC CCL-23), R6 = F, R8 = Methoxy compounds, Hep2 ATCC CCL-23, read-out: hep2 CC50
[7] = R6 = F, R8 = Methoxy compounds, MRSA ATCC 700699, read-out: MRSA MIC
[8] = broth microdilution, read-out: MIC against Methicillin Resistant S. Aureus
[9] = Hep2 cells (ATCC CCL-23), R6 = F, R8 = H compounds, Hep2 ATCC CCL-23, read-out: hep2 CC50
[10] = R6 = F, R8 = H compounds, MRSA ATCC 700699, read-out: MRSA MIC

| Structure (SMILES) | MIC [1] | MIC [2] | CC50 [3, 6] | MIC [4, 7] | MIC [4, 8] | CC50 [3, 9] | MIC [4, 10] | CC50 [3] | CC50 [5] | MIC ([4]; read-out: MRSA MIC) | CC50 ([3]; R6 = F, R8 = Methoxy compounds, Hep2 ATCC CCL-23, read-out: hep2 CC50) |
| --- | --- | --- | --- | --- | --- | --- | --- | --- | --- | --- | --- |
| CNC(C)(C)[C@@H]1CCN(c2c(F)cc3c(=O)c4c(=O)[nH]sc4n(C4CC4)c3c2OC)C1 [Compound 76, (R)-9-cyclo-propyl-6-fluoro-8-methoxy-7-(3-(2-(methyl-amino)propan-2-yl)pyrrolidin-1-yl)isothia-zolo[5,4-b]quinoline-3,4(2H,9H)-dione] | ≤ 1 µg/mL | ≤ 1 µg/mL | 27 µM | 0.13 µg/mL (≈ 0.291 µM) | ≤ 1 µg/mL |  |  |  |  |  |  |
| CNC(C)(C)[C@@H]1CCN(c2cc3c(cc2F)c(=O)c2c(=O)[nH]sc2n3C2CC2)C1 [Compound 80, (R)-9-cyclo-propyl-6-fluoro-7-(3-(2-(methylamino)propan-2-yl)-pyrrolidin-1-yl)isothia-zolo[5,4-b]quinoline-3,4(2H,9H)-dione] | ≤ 1 µg/mL | ≤ 1 µg/mL |  |  |  | 0.57 µM | 2 µg/mL (≈ 4.8 µM) |  |  |  |  |
| COc1c(N2CC[C@@H](CN)C2)c(F)cc2c(=O)c3c(=O)[nH]sc3n(C3CC3)c12 [Compound 63, (S)-7-(3-(aminomethyl)-pyrrolidin-1-yl)-9-cyclopropyl-6-fluoro-8-methoxyiso-thiazolo[5,4-b]quinoline-3,4(2H,9H)-dione] | ≤ 1 µg/mL | ≤ 1 µg/mL | 11 µM | 0.42 µg/mL (≈ 1.04 µM) | ≤ 1 µg/mL |  |  |  |  |  |  |
| NC[C@@H]1CCN(c2cc3c(cc2F)c(=O)c2c(=O)[nH]sc2n3C2CC2)C1 [Compound 64, (S)-7-(3-(aminomethyl)-pyrrolidin-1-yl)-9-cyclopropyl-6-fluoroiso-thiazolo[5,4-b]quinoline-3,4(2H,9H)-dione] |  | ≤ 1 µg/mL |  |  |  | 3.1 µM | 1 µg/mL (≈ 2.67 µM) |  |  |  |  |
| CC(C)(N)[C@H]1CCN(c2cc3c(cc2F)c(=O)c2c(=O)[nH]sc2n3C2CC2)C1 [Compound 61, (S)-7-(3-(2-aminopropan-2-yl)pyrrolidin-1-yl)-9-cyclopropyl-6-fluoroiso-thiazolo[5,4-b]quinoline-3,4(2H,9H)-dione] |  | ≤ 1 µg/mL |  |  |  | 6.1 µM | 16 µg/mL (≈ 39.8 µM) |  |  |  |  |
| COc1c(N2CCC(N(C)C)C2)c(F)cc2c(=O)c3c(=O)[nH]sc3n(C3CC3)c12 (stereo not drawn) [Compound 49, 9-cyclopropyl-7-(3-(dimethyl-amino)pyrrolidin-1-yl)-6-fluoro-8-methoxy-isothiazolo[5,4-b]quinoline-3,4(2H,9H)-dione] | ≤ 1 µg/mL | ≤ 1 µg/mL | 68 µM | 4 µg/mL (≈ 9.56 µM) |  |  |  |  |  |  |  |
| COc1c(N2CC[C@H](C(C)(C)N)C2)c(F)cc2c(=O)c3c(=O)[nH]sc3n(C3CC3)c12 [Compound 58, (S)-7-(3-(2-aminopropan-2-yl)pyrrolidin-1-yl)-9-cyclopropyl-6-fluoro-8-methoxyiso-thiazolo[5,4-b]quinoline-3,4(2H,9H)-dione] | ≤ 1 µg/mL | ≤ 1 µg/mL | 61 µM | 1.5 µg/mL (≈ 3.47 µM) |  |  |  |  |  |  |  |
| COc1c(N2CC[C@H](CN)C2)c(F)cc2c(=O)c3c(=O)[nH]sc3n(C3CC3)c12 [Compound 67, (R)-7-(3-(aminomethyl)-pyrrolidin-1-yl)-9-cyclopropyl-6-fluoro-8-methoxyiso-thiazolo[5,4-b]quinoline-3,4(2H,9H)-dione] | ≤ 1 µg/mL | ≤ 1 µg/mL | 11 µM | 0.25 µg/mL (≈ 0.618 µM) | ≤ 1 µg/mL |  |  |  |  |  |  |
| NC[C@H]1CCN(c2cc3c(cc2F)c(=O)c2c(=O)[nH]sc2n3C2CC2)C1 [Compound 68, (R)-7-(3-(aminomethyl)-pyrrolidin-1-yl)-9-cyclopropyl-6-fluoroiso-thiazolo[5,4-b]quinoline-3,4(2H,9H)-dione] | ≤ 1 µg/mL | ≤ 1 µg/mL |  |  |  | 2.3 µM | 1 µg/mL (≈ 2.67 µM) |  |  |  |  |
| CC(C)(C)c1ccc(C(O)CCCN2CCC(C(O)(c3ccccc3)c3ccccc3)CC2)cc1 (stereo not drawn) [Terfenadine, reference compound] |  |  |  |  |  |  |  | 3 to 5 µM | 4.3 to 6.5 µM |  |  |
| COc1c(N2CC[C@@H](C(C)(C)N)C2)c(F)cc2c(=O)c3c(=O)[nH]sc3n(C3CC3)c12 [Compound 53, (R)-7-(3-(2-aminopropan-2-yl)pyrrolidin-1-yl)-9-cyclopropyl-6-fluoro-8-methoxyiso-thiazolo[5,4-b]quinoline-3,4(2H,9H)-dione] | ≤ 1 µg/mL | ≤ 1 µg/mL | 8.5 µM | 0.1 µg/mL (≈ 0.231 µM) | ≤ 1 µg/mL |  |  |  |  |  |  |
| COc1c(N2CC3CCCNC3C2)c(F)cc2c(=O)c3c(=O)[nH]sc3n(C3CC3)c12 (stereo not drawn) [Compound 45, 9-cyclopropyl-6-fluoro-8-methoxy-7-(octahydro-pyrrolo[3,4-b]pyridin-6-yl)isothia-zolo[5,4-b]quinoline-3,4(2H,9H)-dione, hydrochloride] | ≤ 1 µg/mL | ≤ 1 µg/mL | 93 µM |  |  |  |  |  |  | 2 µg/mL |  |
| CN(C)C1CCN(c2cc3c(cc2F)c(=O)c2c(=O)[nH]sc2n3C2CC2)C1 (stereo not drawn) [Compound 114, 9-cyclo-propyl-7-(3-(dimethyl-amino)pyrrolidin-1-yl)-6-fluoroiso-thiazolo[5,4-b]quinoline-3,4(2H,9H)-dione] |  |  |  |  |  | 3 µM | 2 µg/mL (≈ 5.15 µM) |  |  |  |  |
| COc1c(N2CCNCC2)c(F)cc2c(=O)c3c(=O)[nH]sc3n(C3CC3)c12 [Compound 38, 9-cyclopropyl-6-fluoro-8-methoxy-7-(piperazin-1-yl)isothia-zolo[5,4-b]quinoline-3,4(2H,9H)-dione] | ≤ 1 µg/mL | ≤ 1 µg/mL |  | 4.8 µg/mL (≈ 12.3 µM) |  |  |  |  |  |  | 27 µM |
| O=c1[nH]sc2c1c(=O)c1cc(F)c(N3CC4CCCNC4C3)cc1n2C1CC1 (stereo not drawn) [Compound 46, 9-cyclopropyl-6-fluoro-7-(octahydro-pyrrolo[3,4-b]pyridin-6-yl)isothia-zolo[5,4-b]quinoline-3,4(2H,9H)-dione, hydrochloride] | ≤ 1 µg/mL | ≤ 1 µg/mL |  |  |  | 4.7 µM |  |  |  | 4 µg/mL |  |
| CC(C)(N)[C@@H]1CCN(c2cc3c(cc2F)c(=O)c2c(=O)[nH]sc2n3C2CC2)C1 [Compound 52, (R)-7-(3-(2-aminopropan-2-yl)pyrrolidin-1-yl)-9-cyclopropyl-6-fluoroisothia-zolo[5,4-b]quinoline-3,4(2H,9H)-dione, hydrochloride] | ≤ 1 µg/mL | ≤ 1 µg/mL |  |  | ≤ 1 µg/mL | 0.55 µM |  |  |  | 0.38 µg/mL |  |
